Results taken from patent US20070259916A1, “mGluR5 modulators II” (AstraZeneca AB, priority 2006, published 2007).

Columns and labels:
human mGluR5d = biological target: T1, human mGluR5d (Homo sapiens, UniProt P41594); test: FLIPR assay, functional assessment of mGluR5 antagonism (intracellular calcium mobilization); format: cell-based; conditions: cells expressing human mGluR5d; read-out: FLIPR hmGluR5d
T1 construct: expressed in transfected cells
From the text: Functional Assessment of mGluR5 Antagonism in Cell Lines Expressing mGluR5D
The properties of the compounds of the invention can be analyzed using standard assays for pharmacological activity. Examples of glutamate receptor assays are well known in the art as described in for example Aramori et al., Neuron 8:757 (1992), Tanabe et al., Neuron 8:169 (1992), Miller et al., J. Neuroscience 15: 6103 (1995), Balazs, et al., J. Neurochemistry 69:151 (1997). The methodology described in these publications is incorporated herein by reference. Conveniently, the compounds of the invention can be studied by means of an assay (FLIPR) that measures the mobilization of intracellular calcium, [Ca^2+] in cells expressing mGluR5 or another assay (IP3) that measures inositol phosphate turnover.
Cells expressing human mGluR5d as described in WO97/05252 are seeded at a density of 100,000 cells per well on collagen coated clear bottom 96-well plates with black sides and experiments are done 24 h following seeding. […] The fluorescence signal is sampled 50 times at 1 second intervals followed by 3 samples at 5 second intervals immediately after each of the two additions. Responses are measured as the difference between the peak height of the response to agonist, less the background fluorescence within the sample period. […]

[1] = Determination of brain to plasma ratio in rat; format: in vivo; conditions: brain and plasma, female Sprague Dawley rats, drug in brain over drug in plasma, read-out: Brain/Plasma Ratio of compound in Rat
Procedure: Brain to plasma ratios are estimated in female Sprague Dawley rats. The compound is dissolved in water or another appropriate vehicle. For determination of brain to plasma ratio the compound is administrated as a subcutaneous, or an intravenous bolus injection, or an intravenous infusion, or an oral administration. At a predetermined time point after the administration a blood sample is taken with cardiac puncture. The rat is terminated by cutting the heart open, and the brain is immediately retained. The blood samples are collected in heparinized tubes and centrifuged within 30 minutes, in order to separate the plasma from the blood cells. The plasma is transferred to 96-well plates and stored at −20° C. until analysis. The brains are divided in half, and each half is placed in a pre-tarred tube and stored at −20° C. until analysis. Prior to the analysis, the brain samples are thawed and 3 ml/g brain tissue of distilled water is added to the tubes. The brain samples are sonicated in an ice bath until the samples are homogenized. Both brain and plasma samples are precipitated with acetonitrile. After centrifugation, the supernatant is diluted with 0.2% formic acid. […] After reconstitution of the residuals the samples are ready for injection onto the HPLC column.

T1 sequence (P41594 21-942 isoform P41594-3 limits assumed): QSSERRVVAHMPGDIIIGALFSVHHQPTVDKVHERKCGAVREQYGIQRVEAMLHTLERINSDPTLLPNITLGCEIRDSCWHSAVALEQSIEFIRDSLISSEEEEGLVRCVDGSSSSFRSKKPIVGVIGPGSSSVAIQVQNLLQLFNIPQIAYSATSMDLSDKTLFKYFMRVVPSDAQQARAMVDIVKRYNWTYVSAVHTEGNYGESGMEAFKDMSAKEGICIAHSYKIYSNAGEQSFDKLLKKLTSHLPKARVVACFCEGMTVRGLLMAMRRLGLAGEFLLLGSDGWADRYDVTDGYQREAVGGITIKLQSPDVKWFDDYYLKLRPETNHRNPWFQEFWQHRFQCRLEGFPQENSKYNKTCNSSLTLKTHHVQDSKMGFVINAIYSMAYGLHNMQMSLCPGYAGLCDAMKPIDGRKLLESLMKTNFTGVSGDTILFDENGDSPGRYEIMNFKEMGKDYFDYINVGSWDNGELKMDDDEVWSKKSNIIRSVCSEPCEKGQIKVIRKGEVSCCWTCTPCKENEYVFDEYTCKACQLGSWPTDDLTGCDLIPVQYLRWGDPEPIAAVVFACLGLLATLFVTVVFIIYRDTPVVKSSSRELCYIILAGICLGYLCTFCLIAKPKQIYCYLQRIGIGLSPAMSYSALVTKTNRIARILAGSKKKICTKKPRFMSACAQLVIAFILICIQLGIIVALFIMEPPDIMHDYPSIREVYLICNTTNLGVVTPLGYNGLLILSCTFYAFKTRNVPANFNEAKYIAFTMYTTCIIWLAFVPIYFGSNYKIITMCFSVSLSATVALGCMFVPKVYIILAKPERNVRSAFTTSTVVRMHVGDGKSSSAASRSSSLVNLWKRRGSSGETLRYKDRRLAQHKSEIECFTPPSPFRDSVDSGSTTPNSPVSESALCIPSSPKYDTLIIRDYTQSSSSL

| IC50 (human mGluR5d) [nM] | Kp [1] | Compound |
| --- | --- | --- |
| 110 | 0.06 | COc1cc(-c2nnc(N3CCCCC3c3nnn(-c4cccc(C#N)c4)n3)n2C)ccn1 (stereo not shown) [Example 19.11, 3-(5-{1-[5-(2-Methoxy-pyridin-4-yl)-4-methyl-4H-[1,2,4]triazol-3-yl]-piperidin-2-yl}-tetrazol-2-yl)-benzonitrile] |
| 193 | 0.085 | Cn1c(-c2cccnc2)nnc1N1CCCC[C@H]1c1nnn(-c2cccc(Cl)c2)n1 [Example 20.2, 3-(5-{(S)-2-[2-(3-Chloro-phenyl)-2H-tetrazol-5-yl]-piperidin-1-yl}-4-methyl-4H-[1,2,4]triazol-3-yl)-pyridine] |
